How the values were obtained:
A20 lymphoma cells = experiment: In vitro coagulation assay on A20 cells; type: cell-based, mouse
[1] = test system: C1300 Muγ mouse neuroblastoma; experiment: C1300 (Muγ) tumor model, coaguligand and tTF: thrombosis and anti-tumor effects; type: in vivo
F9 sarcoma = F9 sarcoma mouse model, tumor tissue necrosis; type: in vivo; settings: tTF 4 μg, endotoxin 0.5 μg; three days; spontaneous necrosis 40-50%
Method: 1×10^7 F9 sarcoma cells were injected subcutaneously into the right flank of balb/c nude mice. Subcutanous tumors were measured with a caliper in three perpendicular directions a, b, and c and volumes calculated according to the formula V=π/6×a×b×c. Treatment was initiated when subcutaneous tumors reached a size of 150 to 300 μl.
Reagents were administered into the lateral tail vein.
Mice were closely observed after treatment for clinical signs of toxicity and clinical status was documented at defined time points. Three days after treatment, mice were sacrificed and tumors were harvested. Paraffin embedded tissues were stained with hematoxilin and eosin (H&E). Tissue sections were analyzed on a light microscope by two independent investigators and histological findings were documented. Tumor sections with necrotic areas were scanned with a GS-700 imaging densitometer (Biorad, Hercules, Calif.) and areas of necrosis were calculated as % of total section area.

[2] = test system: L540 human Hodgkin's disease tumors; experiment: Treatment of L540rec tumor-bearing SCID mice with tTF and/or endotoxin, tumor tissue necrosis by densitometry; type: in vivo, mouse; settings: for % tumor necrosis: tTF alone (4 μg; 4 μg or 16 μg), no endotoxin, three days after i.v. treatment; for anti-tumor effect: tTF alone
Method: For in vivo studies, a metastasizing mouse model for human Hodgkin's lymphoma was used. 1×10^7 L540rec cells were injected subcutaneously into the right flank of SCID mice resulting in a subcutaneous tumor with lymph node metastases in the regional lymph node stations. Subcutanous tumors were measured with a caliper in three perpendicular directions a, b, and c, and volumes calculated according to the formula V=π/6×a×b×c.
Treatment was initiated when subcutaneous tumors reached a size of 150 to 300 μl. Reagents were administered into the lateral tail vein.
(§1) Mice were closely observed after treatment for clinical signs of toxicity and clinical status was documented at defined time points (5 minutes, 10 minutes, 15 minutes, 30 minutes. 1 hour. 2 hours, 24 hours, 48 hours, 72 hours). Blood samples were taken from the tail vein at 1 hour, 2 hours and 24 hours to measure TNFα blood levels. Three days after treatment, the mice were anesthetized, blood samples were taken from the vena cava for coagulation tests, and an autopsy was performed to document any changes in gross pathology. Tumors, lymph node metastases and the major normal organs (heart, lung, brain, liver, kidney, colon, spleen, pancreas) were harvested and prepared for histological analysis.
(§2) Tissue samples harvested at the time of autopsy were fixed in 3% NBF (normal buffered formalin) and embedded in paraffin wax. Tissue blocs were cut, dewaxed and stained with hematoxilin and eosin (H&E). Tissue sections were analyzed on a light microscope by two independent investigators and histological findings were documented. Tumor sections with necrotic areas were scanned with a GS-700 imaging densitometer (Biorad, Hercules, Calif.) and areas of necrosis were calculated as % of total section area. Statistical Analysis was performed using SPSS software (SPSS Science Software, Erkrath, Germany) applying the Mann-Whitney-U-test for ungrouped data.

[3] = Clinical signs of toxicity and histology of normal organs in treated tumor-bearing mice; type: in vivo, mouse; settings: for Symptoms: tTF alone (4 μg i.v.), no endotoxin
Method: as §1, §2

[4] = test system: HT29 human colorectal carcinoma; experiment: HT29 xenograft, tumor growth and necrosis after tTF constructs and Factor VIIa; type: in vivo, mouse
3LL mouse lung carcinoma = experiment: In vivo tumor thrombosis, 3LL; settings: large (>800 mm^3) tumors
Excerpt: (§3) Tumor test systems were of four types: i) 3LL mouse lung carcinoma growing subcutaneously in C57BL/6 mice; ii) C1300 mouse neuroblastoma growing subcutaneously in BALB/c nu/nu mice; iii) HT29 human colorectal carcinoma growing subcutaneously in BALB/c nu/nu mice; and iv) C1300 Muγ mouse neuroblastoma growing subcutaneously in BALB/c nu/nu mice. The C1300 Muγ tumor is an interferon-y secreting transfectant derived from the C 1300 tumor (Watanabe et al., 1989).
(§4) To establish tumors, 10^6 to 1.5×10^7 tumor cells were injected subcutaneously into the right anterior flank of the mice. When tumors had grown to various sizes, mice were randomly assigned to different study groups. […] Fab′, or bispecific antibody. Other mice received equivalent quantities IgG, Fab′ or bispecific antibody alone. The injections were performed slowly into one of the tail veins over approximately 45 seconds, usually followed by 200 μl of saline.
(§5) Twenty-four hours after being injected with tTF or immunoglobulin-tTF conjugates, the mice were anesthetized with metophane and were exsanguinated by perfusion with heparinized saline. Tumors and normal tissues were excised and immediately fixed in 3% (v/v) formalin. Paraffin sections were cut and stained with hematoxylin and eosin. Blood vessels having open lumens containing erythrocytes and blood vessels containing thrombi were counted. […]

[5] = test system: 2F2B mouse endothelial cells; experiment: Binding of tTF to endothelial cells (FACS, cell bound coagulation assay); type: cell-based
Method: Cells were washed and coagulation factor mix (as described above) was added. S2765 substrate was added and Factor Xa generation was measured as described above.
2F2B cells were stimulated with LPS (20 μg/ml) or TNFα (500 U/ml) for 4 h at 37° C. […] Fluorescent cells were detected on a flow cytometer (Becton Dickinson, San Jose, Calif.).

[6] = test system: thrombin-antithrombin-complexes (TAT), antithrombin III (ATIII); experiment: Coagulation parameters in plasma three days after treatment; type: in vivo, mouse; settings: tTF alone; plasma three days after i.v. treatment
[7] = test system: H460 human non-small cell lung carcinoma; experiment: Anti-tumor effects, H460; type: in vivo, mouse; settings: second treatment at 900 mm^3
Method: The tumor test systems were: i) L540 human Hodgkin's disease tumors growing in SCID mice; ii) C1300 Muγ (interferon-secreting) neuroblastoma growing in nu/nu mice; iii) H460 human non-small cell lung carcinoma growing in nu/nu mice. To establish solid tumors, 1.5×10^7 tumor cells were injected subcutaneously into the right anterior flank of SCID or BALB/c nu/nu mice (Charles River Labs., Wilmingham, Mass.). When the tumors had grown to various diameters, mice were assigned to different experimental groups, each containing 4 to 9 mice.
Other mice received equivalent quantities of bispecific antibody alone. The injections were performed over ˜45 seconds into one of the tail veins, followed by 200 μl of saline. The infusions were repeated six days later. Perpendicular tumor diameters were measured at regular intervals and tumor volumes were calculated.

[8] = test system: C1300 mouse neuroblastoma; experiment: In vivo tumor thrombosis, C1300
Excerpt: as §3, §4, §5

## tTF: extracellular domain of the mature Tissue Factor protein (amino acid 1-219), recombinant truncated human Tissue Factor
A20 lymphoma cells; 0.1 nM Factor VIIa
  increase in coagulation-inducing potency: 2-5 fold
A20 lymphoma cells; 10^−10 M tTF219, 13.5 nM Factor VIIa
  plasma coagulation time: 20 s
A20 lymphoma cells; 10^−10 M tTF219, absence of Factor VIIa
  plasma coagulation time: 60 s
A20 lymphoma cells; localized on A20 cells via bispecific antibody B21-2/10H10
  concentration at which plasma coagulated in 50 seconds: 3 nM
A20 lymphoma cells; tTF bound to A20 cells by B21-2/10H10, mouse plasma, untreated cells 164 seconds
  time to visible fibrin strands: 36 s
[1]; 24 hours after injection of tTF219
  thrombosis of tumor vessels: practically all vessels in all regions of the tumor were thrombosed
[1]; paraffin sections 30 minutes to 24 hours after administration
  thrombi or morphological abnormalities in normal organs: neither thrombi, nor histological or morphological abnormalities were visible
[1]; small (<500 mm^3) tumors
  effect on tumor vessels: largely unaffected
[1]; tTF alone or mixed with control bispecific antibodies
  tumor growth versus antibodies or saline alone: grew significantly more slowly
F9 sarcoma
  tumor tissue necrosis: 45%
[2]
  % tumor necrosis: 0%
[2]; listed as TTF
  % tumor necrosis: 4%
[2]; listed as endotoxin-free tTF
  % tumor necrosis: 0%
[2]; 4 μg to 16 μg
  anti-tumor effect: no anti-tumor effect
[2]; 100 μg
  anti-tumor effect: anti-tumor effects begin to appear
[3]; light microscopy, three days after treatment
  histology of normal organs: No histological abnormalities were seen
[3]; listed as TTF
  Symptoms: None
[3]; listed as endotoxin-free tTF
  Symptoms: no clinical signs of toxicity
[4]; large (1200 mm^3) tumors
  duration of discontinued growth after treatment: about 7 days
[4]; mouse, in vivo, iv
  average area of necrosis in tumor sections: some necrosis
3LL mouse lung carcinoma
  tumor vessels thrombosed, average: 62%
[5]
  binding to endothelial cells expressing tissue factor: no binding
[6]
  TAT: 25.4 ng/mL
[7]
  tumor volume after second treatment: 550 mm^3
[8]; large tumors (>1000 mm^3), 24 hours after injection
  thrombosis of tumor vessels: virtually all vessels were thrombosed
[8]; small (<500 mm^3) tumors
  effect on tumor vessels: largely unaffected

From patent US20030211075A1 (priority 2001, published 2003)
